# Results: US9598396B2, “Tetrahydrophenanthridinones and tetrahydrocyclopentaquinolinones as PARP and tubulin polymerization inhibitors” (Janssen Pharmaceutica NV, priority 2008, dated 2017)
# Key:
# [1] = test system: Human colon carcinoma HCT116 cells; test: Detection of antiproliferative activity (Alamar Blue assay); assay type: cell-based; conditions: HCT-116, 96 h, 4-day incubation, read-out: Cellular assay HCT116 pIC50 (converted)
# Protocol: Example C.4 Detection of Antiproliferative Activity
# Human colon carcinoma HCT116 cells obtained from the ATCC were cultured in McCoy's 5A medium supplemented with 2 mM L-Glutamine, 50 μg/ml gentamicin and 10% heat inactivated fetal calf serum.
# Reagents used in the Alamar Blue Assay
# Resazurin was purchased from Aldrich (Prod. No. 199303). Potassium ferrocyanide, potassium ferricyanide, KH2PO4 and K2HPO4 were purchased from Sigma (Prod. Nos. P9387, P8131, P5655 and P8281, respectively).
# Potassium Phosphate Buffer 0.1 M (PPB) was made as follows: 2.72 gram KH2PO4 and 13.86 gram K2HPO4 were dissolved in 500 ml milli-Q H2O, the pH was adjusted to pH 7.4 and the volume was brought to 1 liter with milli-Q H2O; the buffer was filter sterilised and stored at room temperature. Resazurin stock solution (PPB-A) was prepared fresh by dissolving 45 mg resazurin in 15 ml PBS. 30 mM potassium ferricyanide (PPB-B) was prepared by dissolving 0.987 gram potassium ferricyanide in 100 ml PPB. 30 mM potassium ferrocyanide (PPB-C) was prepared by dissolving 1.266 gram potassium ferrocyanide in 100 ml PPB.
# Mixture of PPB-A, PPB-B and PPB-C was prepared by mixing equal volumes of the respective solutions. Resazurin work solution (herein termed “Alamar Blue” solution) was prepared by diluting said mixture 20× (vol/vol) in PPB and filter sterilising; the Alamar Blue solution could be kept at 4° C. for a maximum of 2 weeks.
# Procedure of the Alamar Blue Assay
# For experiments in 384 wells plates the cells were seeded at a density of 4.5×10^3 cells/ml in Falcon 384-well culture plates (Life Technologies, Merelbeke, Belgium), black with clear bottom, in 45 μl culture medium. Cells were allowed to adhere to plastic for 24 hours. The tested compound was pre-diluted (1/50 in culture medium) and 5 μl pre-diluted compound was added to the wells. Following 4-day incubation, 10 μl of the Alamar Blue solution was added to each well and the cells were further incubated for 4 hours (HCT116) or 24 hours (PC-3) at 37° C. The fluorescence intensity was measured for each well on a Fluorescence plate reader (Fluorskan, Labsystems, 540 nm excitation and 590 nm emission)
# The antiproliferative activity was calculated as percentage of remaining viable cells in treated versus control (untreated cells) conditions. Within an experiment, the result for each experimental condition is the mean of 3 replicate wells. When appropriate, the experiments were repeated to establish full concentration-response curves. […] Herein the effects of tested compounds are expressed as pIC50 (the negative log value of the IC50 value) (see Table 3).
# [2] = test system: human prostate cancer PC3 cells; test: Eb1 Comet (microtubule disruption) assay; assay type: cell-based; conditions: 1 hour treatment, LAC = concentration where Eb1 foci absent in at least 50% of treated cells
# Description: Example C.6 Eb1 Comet (Microtubule Disruption) Assay
# The Eb1 Comet assay relies on the detection of the Eb1 protein at the plus end of polymerizing microtubules (Mimori-Kiyosue, 2000) using indirect immunofluorescence. Disruption of microtubule dynamics through de-polymerization or stabilization results in a de-localization of Eb1 from the growing microtubule ends and this is visualized by the disappearance of Eb1 containing cytoplasmic foci.
# Briefly, human prostate cancer PC3 cells obtained from the American Type Culture Collection were grown in 96-well plates (Greiner, cat. no. 655090) in HAM's F12 medium as recommended by the provider (ATCC). The cells were treated for 1 hour at 37° C. with compounds dissolved in DMSO (0.6% final DMSO concentration). The culture medium was then removed by aspiration and the cells were fixed by adding cold methanol (−20 C). After a 15 minutes incubation at −20° C., the cells were washed twice with DPBS (Gibco) containing 0.5% Triton X-100. Mouse Eb1 antibody (BD Transduction Laboratories, cat. no. 610534) was added to the cells (1/250 dilution in DPBS containing 1% BSA) and incubated overnight at room temperature. The antibody was subsequently removed and the cells washed twice with DPBS, 0.5% Triton X-100. Secondary goat anti-mouse antibody conjugated to Alexa 488 fluorescent dye (Molecular Probes) was added at a 1/500 dilution in DPBS, 1% BSA and incubated for 1 hour at 37° C. The cells were washed twice with DPBS, 0.5% Triton X-100 and then DPBS containing 0.5% Triton X-100 and 1/5000 Hoechst 33342 (Molecular Probes) was added. Microscopy based Eb1 foci visualization was carried out using an IN Cell Analyser 1000 (Amersham Biosciences) using a 20× objective. Compound dependent microtubule disruption was visually determined by the disappearance in Eb1 foci. The lowest active concentration (LAC) was determined as the concentration where Eb1 foci were absent in at least 50% of the treated cells. Herein the effects of tested compounds are expressed as pLAC (the negative log value of the LAC value) (see Table 3).
SMILES,IC50 [1] [µM],Cellular assay Eb1 pLAC [2]
CC(C#N)(Cc1ccccc1)c1ccc2c3c(c(=O)[nH]c2c1)CCCC3 (centres unmarked) [Co. No. 1],0.355,
CC(C#N)(Cc1cccc(C#N)c1)c1ccc2c3c(c(=O)[nH]c2c1)CCCC3 (centres unmarked) [Co. No. 4],0.148,
CC(C#N)(Cc1cccc(Cl)c1)c1ccc2c3c(c(=O)[nH]c2c1)CCCC3 (centres unmarked) [Co. No. 8],0.155,
CC(C#N)(CCOc1ccc(C#N)cc1)c1ccc2c3c(c(=O)[nH]c2c1)CCCC3 (centres unmarked) [Co. No. 17],0.204,

# Now from value to compound, other results behind:
IC50 [1] [µM],SMILES,Cellular assay Eb1 pLAC [2]
0.282,CC(C#N)(Cc1cccc(F)c1)c1ccc2c3c(c(=O)[nH]c2c1)CCCC3 (centres unmarked) [Co. No. 5],7
0.0589,CC(C#N)(Cc1cccc(C#N)n1)c1ccc2c3c(c(=O)[nH]c2c1)CCCC3 (centres unmarked) [Co. No. 7],7.5
